The values that follow come from patent US20230026163A1, “ANTICANCER COMPOUND AND MEDICAL USE THEREOF” (ASCENTAWITS PHARMACEUTICALS, LTD., priority 2019, published 2023).

For orientation: IC50 means the concentration needed to halve the response being measured. Higher therefore signals weaker potency in that assay.

The nature of series [1]: Plasma stability, rat. The format is in vitro ADME. The method, then:
(§1) Frozen plasma was melted immediately in a water bath at 37° C. […] The supernatants were collected into new tubes, respectively. pH values of the plasma were checked and recorded. Note: a, no more 2 times melted plasma was used since the sample was received; b, the plasma in pH 7 to pH 8 was used.
(§2) 1 mM of working solution of the test compounds and the control compound, propantheline, were prepared in DMSO. 1 mM of working solution of the control compound in […] was prepared in acetonitrile. 4 μL of the working solutions were added to 796 μL of pre-incubated plasma respectively to achieve a final concentration of 5 μM. The final concentration of solvent was 0.5%.
(§3) […] The test was performed in duplicate. […] 50 μL of the labeled plasma was added to new tubes containing 300 μL of the quench solution of room temperature, i.e., the sample with a preparation time of 0. The samples were vortexed to mix for 5 minutes. […] 100 μL of the supernatant was transferred to new plates.

Series [2] can be described thus: Hepatomicrosome stability, human. The following applies: for Remaining percentage after 30 minutes: Human, 2 μM. The method, then: 1a) With NADPH: 10 μL of 20 mg/mL of hepatomicrosome and 40 μL of 10 mM of NADPH were added to medium. The final concentrations of hepatomicrosome and NADPH were 0.5 mg/mL and 1 mM, respectively.
1b) Without NADPH: 10 μL of 20 mg/mL hepatomicrosome and 40 μL of ultra-pure H2O were added to medium. The final concentration of hepatomicrosome was 0.5 mg/mL.
3) 3) Aliquots of 50 μL from the reaction solutions at 0 minute and 30 minutes were taken. The reaction solutions were stopped by adding 4 volumes of cold acetonitrile and 4 internal standards (IS internal standard, 100 nM of Alprazolam, 200 nM of caffeine, 200 nM of Labetalol, and 2 μM of Ketoprofen) to stop the reaction solution. The samples were centrifuged at 3,220 g for 40 minutes. Aliquots of 100 μL of the supernatants were mixed with 100 μL of ultra-pure H2O. Then, the mixtures were used for LC-MS/MS analysis. All experiments were performed in duplicate. The test results were as follow.

Series [3] has as its system AA8 cell line. The experiment in a line: Cytotoxicity on AA8 cell line (2 hours exposure, AlamarBlue). It is filed as cell-based, Chinese hamster. The following applies: Cricetulus griseus, CHO-AA8; AA8, 2 hours exposure, then 70 hours, normoxic. (The colour change of resazurin is a common sign of viable cells or microbes.)
In series [4] the target is T1, CYP450R enzyme (Homo sapiens, UniProt P16435).
T1 sequence (P16435 1-677): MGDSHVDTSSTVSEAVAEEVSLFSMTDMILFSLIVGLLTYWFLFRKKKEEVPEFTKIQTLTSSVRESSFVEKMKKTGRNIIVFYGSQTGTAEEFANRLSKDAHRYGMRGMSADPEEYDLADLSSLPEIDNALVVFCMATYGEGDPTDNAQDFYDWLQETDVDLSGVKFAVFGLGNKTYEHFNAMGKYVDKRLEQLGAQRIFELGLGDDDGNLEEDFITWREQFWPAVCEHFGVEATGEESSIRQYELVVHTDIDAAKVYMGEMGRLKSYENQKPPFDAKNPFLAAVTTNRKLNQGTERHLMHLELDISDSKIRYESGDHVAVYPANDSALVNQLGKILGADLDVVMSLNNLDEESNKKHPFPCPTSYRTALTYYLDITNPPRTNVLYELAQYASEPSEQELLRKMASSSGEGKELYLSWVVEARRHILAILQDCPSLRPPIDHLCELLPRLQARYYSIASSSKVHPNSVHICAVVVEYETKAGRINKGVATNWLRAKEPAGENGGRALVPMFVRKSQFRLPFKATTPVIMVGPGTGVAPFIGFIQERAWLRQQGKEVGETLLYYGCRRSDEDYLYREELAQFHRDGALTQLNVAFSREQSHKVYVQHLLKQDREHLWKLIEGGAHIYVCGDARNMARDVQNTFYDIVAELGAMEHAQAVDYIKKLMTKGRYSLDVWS
The experiment in a line: Hypoxia-dependent reduction experiment with NADPH and CYP450R. It is filed as biochemical. The conditions noted are these: in the presence of NADPH and CYP450R enzymes. The method, then:
Ingredients were added to each tube without NADPH. Next, 50 μL of the condition B samples were transferred into 100 μL of acetonitrile (T=0). For the samples to be tested under hypoxia condition, the tubes were placed in a hypoxia chamber (BACTRON anaerobic/environmental chamber). The reactions were initiated by adding NADPH to tube A and tube C. Then, the samples with NADPH were placed at 37° C. For the samples to be tested in air condition, the tubes were placed in a hot plate at 37° C. After 30 minutes and 2 hours of incubation, 50 μL of samples were taken from each tube and mixed with 100 μL of acetonitrile. All tubes were spun to remove any protein precipitate and placed in HPLC vials for analysis. The results were compared with the standard curve of the authentic standard. The specific composition of the reagents in each sample reaction tube was shown as follow.
The drugs relative to the initial amount of the test drug (TH-302, compound 01) of the 3 different sample reaction tubes of A/B/C that have been reacted for different times (0/30 min/120 min). The results of adding different concentrations of human NADPH coenzyme were shown in FIG. 3 and FIG. 4, respectively.

A short description of series [5]: Plasma stability, dog. The format is in vitro ADME. On the procedure:
as §1, §2, §3

A short description of series [6]: Plasma stability, mouse. The format is in vitro ADME. On the procedure: as §1, §2, §3

Take `O=[N+]([O-])c1ccc(C(OP(=O)(N2CC2)N2CC2)C(F)(F)F)c2ccccc12` (stereo not drawn) [Compound 01]: the Remaining percentage in series [1] (Rat plasma, 5 μM, 37° C., after 30 minutes) amounted to 52.11%; in series [5] (Dog plasma, 5 μM, 37° C., after 30 minutes), 85.04%; in series [6] (Mouse plasma, 5 μM, 37° C., after 30 minutes) it was 55.07%. Besides, the “Stability in plasma (conclusion)” value is reported as “relatively unstable” in series [1] (rat), “relatively stable” in series [5] (dog) and “relatively unstable” in series [6] (mouse). Besides, the “Remaining percentage after 30 minutes” value in series [2] (with NADPH) amounted to 96.39%; in series [2] (without NADPH) it was 82.15%. Also, the “Stability in hepatomicrosomes (conclusion)” value in series [2] (human) is “relatively stable”. The same molecule gave an IC50 in series [3] of 10.8 µM. Further, the “Reduction ratio compared with TH-302” value in series [4] is “similar”. Besides, the Hypoxia-dependent reduction entry in series [4] (37° C.) is given as “showed the hypoxia-dependent reduction reaction”.
